Usually Ki stands for the equilibrium dissociation constant of an inhibitor or competing ligand from its target.

Assay [1] concerns the target T1, chicken liver DHFR (Gallus gallus, UniProt P00378).
T1 construct: from tissue; host or cells: chicken liver
The assay is described as follows: Kinetic analysis of inhibition of chicken liver DHFR. It is filed as biochemical. As to the method: The activity of DHFR was determined at 25° C. by following the decrease of NADPH and DHF by absorbance measurements at 340 nm (ε=11,800 M^−1 cm^−1) by using a Perkin-Elmer Lambda-2 spectrophotometer with cuvettes of 1.0 cm light-path.
Experiments were performed at pH 7.58 and 25° C. in a buffer containing 2-(N-morpholino)ethanesulfonic acid (MES, 25 mM), sodium acetate (25 mM), tris(hydroxymethyl)aminomethane (Tris 50 mM), and NaCl (100 mM). To prevent the oxidation of catechins, the reaction mixture contained 1 mM ascorbic acid. The pH of the reaction was measured before and after of the experiment. The assays were started by the addition of enzyme. In the absence of the enzyme, the rate of change of absorbance was negligible.
Lineweaver-Burk plots were made of the reaction of chicken liver DHFR (3.3 nM) with DHF and NADPH. For initial velocity inhibition experiments one substrate (NADPH) was held constant at saturating concentration (100 μM) while the concentration of the other substrate (DHF) and the inhibitor (EGCG) were varied (FIG. 3). […] This initial concentration of saturating NADPH was considered as constant after the consumption of 10 μM DHF by the addition of enzyme. Data were fitted by nonlinear regression to the integrated form (31) of the Michaelis equation. The fitting was performed by using Marquart's algorithm (32) implemented in the Sigma Plot 2.01 for Windows (33). […]

The target in assay [2] is S. maltophilia DHFR (Stenotrophomonas maltophilia, UniProt B2FPG1). The class given is biochemical. As to conditions: S. maltophilia DHFR. As to the method: For the DHFR extraction, S. maltophilia strain number 1, was inoculated onto fresh agar 24 h before using. Then, liquid medium was inoculated with the strain and these broth cultures were incubated at 37° C. and shaken at 100 cycles per min. Solid medium was MacConkey agar (Oxoid Ltd., Basingstoke, England). Liquid medium was Brilliant Green Bile 2% broth (Oxoid). Bacteria were grown to mid-log phase, harvested by centrifugation (1,600 rpm 30 min) and washed twice in 50 mM phosphate buffer (pH 7.0) followed each time by a new centrifugation (1,600 rpm 5 min). Cell lysis, centrifugation, and dialysis were carried out between 4 and 8° C. Fast protein liquid chromatography (FPLC) purification steps were performed at room temperature. […] After centrifugation at 36,000 rpm for 30 min to remove cell debris, the supernatant was filtered. This supernatant was brought to 40% saturation with solid ammonium sulfate under continuous stirring. After 1 h the solution was centrifuged at 35,000 rpm for 30 min and the pellet discarded. Additional ammonium sulfate was added to the clear supernatant to give 90% saturation and stirred for 1 h. After centrifugation, the precipitates were suspended in 2 ml of buffer B (10 mM potassium phosphate buffer, pH 7.4, 2 mM β-mercaptoethanol). Concentrated enzyme (2 ml samples) was loaded onto a […] gel-filtration column (Sephacryl S-75 16/60 Hi-Prep, Amersham Pharmacia Biotech Europe GmbH, Barcelona, Spain), equilibrated with buffer B and eluted at 0.5 ml/min. The active fractions were concentrated and stored at −80° C. until used.
S. maltophilia DHFR, sequence (B2FPG1 entry or part of it): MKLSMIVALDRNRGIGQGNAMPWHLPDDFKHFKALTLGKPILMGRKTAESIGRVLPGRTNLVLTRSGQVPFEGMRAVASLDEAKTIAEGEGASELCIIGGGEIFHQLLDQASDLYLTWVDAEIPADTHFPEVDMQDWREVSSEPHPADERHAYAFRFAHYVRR
Initial velocity inhibition experiments were carried out for the inhibition studies of S. maltophilia with TMP and EGCG. One substrate (NADPH) was held constant at saturating concentration while the other substrate (DHF) and the inhibitor (TMP or EGCG) were varied. To prevent the oxidation of EGCG the reaction mixture contained 1 mM N-acetylcysteine (Sigma). For MTX inhibition the slow development of […] inhibition was determined by continuously monitoring the disappearance of NADPH and DHF after initiation of the reaction by the addition of DHFR. Reaction mixtures contained buffer, NADPH (100 μM), DHF (20 μM), and various concentrations of MTX. The extent of recovery of enzymatic activity following inhibition induced by preincubation with DHFR inhibitors was determined as follows. DHFR was preincubated for 30 min at 25° C. in the buffer mixture containing MTX, TMP or EGCG. An aliquot of the incubation mixture was then diluted 500-fold into a reaction mixture containing buffer mixture, NADPH (100 μM), and DHF (20 μM). Recovery of enzyme activity was followed by continuous monitoring at 340 nm.
Provided that the concentration of free inhibitor is not substantially altered by the formation of an enzyme-NADPH-inhibitor complex, the progress curve for the inhibition in the presence of saturating NADPH can be described by Eqn. 1 (as above): P=vst+(v0−vs)(1−exp(−kobst))/kobs • where vs, v0 and kobs represent the steady-state velocity, initial velocity and apparent first-order rate constant, respectively. The apparent first-order rate constant is related to the inhibitor concentration by Eqn. 2, where Ki denotes the dissociation constants for the initial binding of MTX to the enzyme-NADPH complex. [formula]

The test system of assay [3] is S. maltophilia strain 1. The assay is described as follows: Time kill assay for bactericidal and bacteriostatic effects. It is filed as cell-based, Stenotrophomonas maltophilia. As to the method:
A time kill assay was performed for strain 1. Glass tubes containing cation-adjusted Mueller-Hinton broth, with doubling antibiotic concentration were inoculated with 5×10^5 CFU/ml and were incubated at 37° C. for 24 h. Antibiotic concentrations were chosen to comprise three doubling dilutions above and two doubling dilutions below the broth dilution MIC. Inoculation of each serially diluted antibiotic tube was performed following NCCLS guidelines for broth dilution method. Viability counts of antibiotic-containing suspensions were carried out at 0, 3, 6, 12 and 24 h, by plating 10 μl aliquots of 10-fold dilutions from each tube in sterile saline onto Columbia agar supplemented with 5% of defibrinated sheep blood. The plates used to recover organisms were incubated for up to 24 h. The lower limit of sensibility of colony counts was 100 CFU/ml. Time kill assay results were analyzed by determining changes in the log10 CFU/ml compared to the counts at zero-time for the six different concentrations of EGCG. Bactericidal effect was defined at the lowest concentration that reduced the original inoculums by ≧3 log10 CFU/ml after a period of time and bacteriostatic if the inoculums was reduced by 0 to 3 log10 CFU/ml.

Assay [4] deals with NF-κB. The assay is described as follows: TNF-α-mediated activation of NF-κB (Western blot). The class given is cell-based. Particulars: 24 hours, then TNF-α, IκBα, phospho-IκBα, Akt. On the procedure:
To check if the antifolate activity of EGCG is related to the suppression of activation of NF-κB, cells were grown in the presence of EGCG or MTX. After 24 hours, the cells were induced with TNF-α and the content of proteins related to NF-κB activation (IκBα, phospho-IκBα, Akt and phosphor-Akt) was checked by Western blot (FIG. 16A).
For orientation: A western blot detects proteins with antibodies after separation by electrophoresis.

The target of assay [5] is urokinase (Homo sapiens, UniProt P00749). Particulars: in vitro; cited from earlier work.

T1 sequence (P00378 whole entry): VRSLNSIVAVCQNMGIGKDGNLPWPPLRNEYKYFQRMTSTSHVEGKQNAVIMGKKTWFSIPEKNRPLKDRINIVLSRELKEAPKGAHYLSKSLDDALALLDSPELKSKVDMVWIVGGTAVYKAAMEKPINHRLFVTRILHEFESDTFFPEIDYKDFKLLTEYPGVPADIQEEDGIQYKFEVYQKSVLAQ

In the case of (−)-epigallocatechin gallate [EGCG], the inhibition constant (Ki) in assay [1] (chicken liver DHFR, from secondary plot, read-out: KI as a competitive inhibitor of DHF) came to 10.3 µM. Moreover, in assay [1] (enzyme 1.65 μM preincubated with 20 to 50 μM inhibitor for 30 min, 500-fold dilution into DHF/NADPH assay), the “inhibition after preincubation and 500-fold dilution” value is “did not produce any measurable inhibition”. For the same substance, in assay [2], the “Type of inhibition observed” value was “competitive (reversible)”. In addition, the Ki in assay [2] (competitive respect to DHF, read-out: inhibition constant (Ki)) is 4.04 µM. The “effect of preincubation of the enzyme with inhibitor” value in assay [2] (preincubation 30 min, 500-fold dilution) is “did not showed any effect on enzymatic activity”. Also, the regrowth result in assay [3] (64 μg/ml, after 12 h incubation) is listed as “Regrowth was observed”. Further, in assay [3] (at 12 h), the “concentration with bactericidal effect” value is listed as 4 times the MIC and the “concentration with bacteriostatic effect” value came to 2 times the MIC. Further, the “effects on proteins related to NF-κB activation, with folinic acid” value in assay [4] is “highly reversed by folinic acid”. Further, the “concentration needed to inhibit urokinase activity” value in assay [5] was 2 to 10 mM.

Source of the values: patent US20070249545A1, “DIHYDROFOLATE REDUCTASE INHIBITION BY EPIGALLOCATECHIN GALLATE COMPOUNDS” (priority 2004, published 2007).
